Assay results published in patent US5866570A, “Treatment of vascular leakage and related syndrome such as septic shock by administration of metalloproteinase inhibitors” (Wisconsin Alumni Research Foundation, priority 1994, dated 1999).
Values belong to the compound of their own block, whether it stands above or below them.

Experiments:
B16-F10 melanoma cells = conditions: pretreatment of B16-F10 cells at 2, 20 and 100 μM; cited from earlier work
metastases = conditions: in vivo; cited from earlier work
V-79A fibroblasts = conditions: tissue culture; cited from earlier work
[1] = tested on: MDA-MB-231 cells (human breast carcinoma); assay: in vitro invasion assay through matrigel (Transwell); format: cell-based; conditions: preliminary screen
Experimental: (§1) Razoxane, various bis(hydroxylated)(2,6-dioxopiperazine)s, and various hydrophobic analogs were tested in an in vitro assay for inhibition of tumor cell penetration of a reconstituted basement membrane, matrigel, isolated from the Englegbreth-Holm-Swarm (EHS) tumor (disclosed in Kleinman et al., Biochem. (1982), 24, 6188-6193) first described by Albini et al, Cancer Res. (1987) 47, 3234-3245. An 8 μm pore filter coated with matrigel separates a lower compartment containing a chemoattractant and an upper compartment containing the cells and test compound. In particular, the following compounds were tested: razoxane, (1α, 2α, 4α, 5α)-4,4'-(4,5-dihydroxy-1,2-cyclohexanediyl)bis(2,6-piperazinedione); (1α, 2α, 4β, 5β)-4,4'-(4,5-dihydroxy-1,2-cyclohexanediyl)bis(2,6-piperazinedione);(1β, 2α,4α,5α)-4,4'-(4,5-dihydroxy-1,2-cyclohexanediyl)bis(2,6-piperazinedione); (1β, 2α, 4α,5β)-4,4'-(4,5-dihydroxy-1,2-cyclohexanediyl)bis(2,6piperazinedione); (1α, 2β, 4α,5β)-4,4'-(4,5-dihydroxy-1,2cyclohexanediyl)bis(2,6-piperazinedione); N,N'-cyclohexane-1,2-diylbis[N(2-ethoxy-2-oxoethyl)]glycine; N,N'-4-cyclohexene-1,2-diylbis[N-(2-ethoxy-2-oxoethyl)-glycine ester; (3aα, 5β, 6β, 7aα)-4,4'-(hexahydro-2,2-dimethyl1,3-benzodioxole-5,6-diyl)bis(2,6-piperazinedione); (3aα, 5α, 6α, 7aα)-4,4'-(hexahydro-2,2-dimethyl-1,3-benzodioxole-5,6-diyl)bis(2,6- piperazinedione); (3aα, 5α, 6β, 7aα)-4,4'-(hexahydro-2,2-dimethyl-1,3-benzodioxole-5,6-diyl)bis-2,6- piperazinedione; (3aα, 5β, 6α, 7aβ)-4,4'-(hexahydro-2,2dimethyl-1,3-benzodioxole-5,6-diyl)bis(2,6-piperazinedione); and (3aα, 5α, 6β, 7aβ)-4,4'-(hexahydro-2,2-dimethyl-1,3-benzodioxole-5,6-diyl) bis(2,6piperazinedione). Metastatic cells are able to degrade the basement membrane protein barrier and migrate through the pores of the filter whereas non-metastatic cells remain on the upper surface. The cells that pass to the under side of the filter are then counted under a microscope. […] Variations of this assay have been used to correlate this in vitro invasion with metastatic potential in vivo (Albini et al. (Id.); Hendrix et al. Cancer Letters (1987); 38, 127-247; Repesh L. A., Invasion Metastasis (1989) 9, 192-208 to select for more highly invasive cells (Teranova et al., Proc. Nat. Acad. Sci., (1986), 83, 465, 464; Tullberg et al., Invasion Metastasis, (1989), 9, 13-26; Sefer et al., Biotechniques, (1990), 9, 324-331), and to test compounds for inhibition (Nakajima et al., Cancer Res. (1989), 49, 1698-1756).
(§2) This method has been improved to increase the number of assays which may be performed and analyzed per day. In particular, such improvement comprises the use of disposable Transwells (Costar) units described by Repesh et al., Invasion Metastasis, (1989), 9, 192-208, which consist of an 8 μm pore filter attached to an insert that fits in a 24 well culture plate. Matrigel concentration is titrated from zero to complete inhibition of motility of each invasive cell line used in the assay and for each batch of matrigel. The matrigel concentration which yields 50% or greater inhibition of motility in a 6 hr assay (usually from 15 to 50 μg of protein per filter) is chosen for determination of invasion. Motility of cells through the 8 μm filters is not by passive diffusion since the pore size is smaller than the cells, and is determined in the same chamber in the absence of matrigel. Motility is stimulated two-fold by the presence of fibroblast conditioned medium (3T3 cells) as a chemoattractant (data not shown). The cell lines used are HT-1080, a human fibrosarcoma, and MDA-MB-231, a human breast carcinoma (both available from the American Type Tissue Culture). These cell lines express both the 72 kD and the 92 kD collagenase type IV as determined by zymography (data not shown).
(§3) For inhibition studies, 5×10^5 cells are plated in 200 μl of DMEM+0.1% BSA+the inhibitor (or appropriate solvent control) into the upper chamber of the Transwell. […]

[2] = tested on: HT-1080 cells (human fibrosarcoma); assay: as above; format: cell-based
Experimental: as §1, §2, §3

[3] = target: T1, E. coli recombinant human 72 kD collagenase type IV (MMP-2), pAPMA activated (Homo sapiens, UniProt P08253); assay: gelatinase assay (3H-gelatin degradation), Example 9; format: biochemical; conditions: 100 ng activated enzyme, 4 hrs preincubation with inhibitor at 37° C., 3H-gelatin substrate; read-out: IC50, inhibition of collagenase type IV gelatinase activity
T1 construct: made in house; host or cells: E. coli
T1 sequence (P08253 110-660): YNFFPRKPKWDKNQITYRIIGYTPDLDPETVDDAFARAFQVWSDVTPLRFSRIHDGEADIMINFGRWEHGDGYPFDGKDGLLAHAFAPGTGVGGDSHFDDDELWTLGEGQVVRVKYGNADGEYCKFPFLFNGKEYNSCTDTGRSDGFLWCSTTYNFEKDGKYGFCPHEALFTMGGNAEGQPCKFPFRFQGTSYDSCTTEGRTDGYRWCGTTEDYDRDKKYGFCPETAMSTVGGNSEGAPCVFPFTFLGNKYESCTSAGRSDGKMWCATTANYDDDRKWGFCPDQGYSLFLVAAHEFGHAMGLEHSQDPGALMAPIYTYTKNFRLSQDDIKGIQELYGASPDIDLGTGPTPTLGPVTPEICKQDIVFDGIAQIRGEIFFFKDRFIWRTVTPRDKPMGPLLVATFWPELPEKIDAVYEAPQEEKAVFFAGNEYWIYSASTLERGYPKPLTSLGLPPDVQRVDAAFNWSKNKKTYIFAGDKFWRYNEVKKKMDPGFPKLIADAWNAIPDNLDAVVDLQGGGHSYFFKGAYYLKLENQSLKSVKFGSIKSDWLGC
Description: Type IV collagenases are highly efficient in digesting gelatin. Inhibition of the gelatinase activity of human recombinant collagenase type IV was used as an initial assay for testing the bis(dioxopiperazine)s. The recombinant 72 kD collagenase IV used in the gelatinase assays was made in E. coli from a cDNA insert obtained from Dr. William Stetler-Stevenson (NCI). The protein runs at 72 kD on SDS-PAGE, has gelatinolytic activity in zymogram, is activated by pAPMA, is precipitated by a monoclonal anti-peptide antibody to the pro-region of the 72 kD enzyme, and is inhibited by TIMP-2. Rat tail ^3 H-collagen I (Dupont-NEN) is denatured to become gelatin by heating at 60° C. for 20 min. E. coli recombinant human 72 kD collagenase type IV is activated by incubation with 1 mM pAPMA for 1 hr. at 37° C. 100 ng of activated enzyme is added to each tube containing 50 mM Tris-HCl pH 7.5, 5 mM CaCl2 and 0.005% Brij-35 and pre-incubated with inhibitor or solvent control for 4 hrs. at 37° C. in a total of 25 μl. 10,000 cpm of ^3 H-gelatin substrate in 30 μl is added (final volume of 55 μl per sample) and the reaction mixture is incubated at 37° C. for 2 to 16 hrs. […] Enzyme activity is calculated from the radioactivity in the supernatant and activity of the compounds expressed as percent solvent control.

SMILES: O=C1CN2CCN3CC(=O)NC(=O)[C@H]3[C@H]2C(=O)N1 [cis-21]
- metastasis to the lungs after pretreatment of the cells (B16-F10 melanoma cells): ineffective

SMILES: O=C1CN([C@@H]2C[C@@H]2N2CC(=O)NC(=O)C2)CC(=O)N1 [cis-16, cis-4,4'-(cyclopropanediyl) bis(2,6)dioxopiperazine]
- effect on development of metastases (metastases): inhibits

SMILES: O=C1CN([C@@H]2C[C@H]2N2CC(=O)NC(=O)C2)CC(=O)N1 (relative stereo) [trans-15]
- effect on development of metastases (metastases): stimulates
- cytotoxic activity (V-79A fibroblasts): inactive

- IC50 [3]: 45 µM
SMILES: CC1(C)O[C@H]2C[C@@H](N3CC(=O)NC(=O)C3)[C@H](N3CC(=O)NC(=O)C3)C[C@H]2O1 (relative stereo) [Compound 78]
- inhibition of invasion [1]: inhibit invasion
- effect on cell motility ([1]; no matrigel): without inhibiting cell motility
- inhibition at 290 µM ([2]; Homo sapiens, HT-1080, at 290 μM, 6 hour assay, read-out: maximum inhibition of invasion): 25%
- inhibition of invasion ([2]; preliminary screen): inhibit invasion
- effect on cell motility ([2]; preliminary screen, no matrigel): without inhibiting cell motility

SMILES: O=C1CN2CCN3CC(=O)NC(=O)[C@H]3[C@@H]2C(=O)N1 (relative stereo) [trans-20]
- metastasis to the lungs after pretreatment of the cells (B16-F10 melanoma cells): significantly reduces the metastasis
